Source: ChEMBL document CHEMBL4406858, “Discovery of 2-aminopyridines bearing a pyridone moiety as potent ALK inhibitors to overcome the crizotinib-resistant mutants” (Eur J Med Chem, 2019)
pIC50: −log10 of the molar value.

Experiments:
KARPAS-299 [1] = test: cells; details: Homo sapiens, KARPAS-299, 72 h
Description: Antiproliferative activity against human KARPAS299 cells expressing NMP-ALK assessed as reduction in cell viability incubated for 72 hrs by MTT assay

NCI-H2228 = test: cells; details: Homo sapiens, NCI-H2228, 72 h
Description: Antiproliferative activity against human NCI-H2228 cells expressing EML4-ALK assessed as reduction in cell viability incubated for 72 hrs by MTT assay

cells = details: Homo sapiens, SKNBE2, 72 h
Description: Antiproliferative activity against human SK-N-BE(2) cells expressing wild type ALK assessed as reduction in cell viability incubated for 72 hrs by MTT assay

SH-SY5Y = test: cells; details: Homo sapiens, 72 h
Description: Antiproliferative activity against human SH-SY5Y cells expressing ALK F1174L mutant assessed as reduction in cell viability incubated for 72 hrs by MTT assay

KARPAS-299 [2] = test: Cell cycle arrest in human KARPAS299 cells expressing […] assessed as accumulation of cells at G1 phase at 1 uM incubated for 48 hrs by propidium iodide staining based flow cytometry (reference value: 58.94%); format: functional
[3] = biological target: Proto-oncogene tyrosine-protein kinase ROS (Homo sapiens, UniProt P08922); test: Inhibition of recombinant human N-terminal GST-tagged ROS (1883 to 2347 residues) expressed in baculovirus expression system using IRS1 as substrate incubated with enzyme and substrate for 5 mins followed by ATP addition followed by further incubation for 30 mins by HTRF assay
KARPAS-299 [4] = test: Cell cycle arrest in human KARPAS299 cells expressing […] assessed as accumulation of cells at G2 phase at 1 uM incubated for 48 hrs by propidium iodide staining based flow cytometry (reference value: 3.68%); format: functional
KARPAS-299 [5] = test: Cell cycle arrest in human KARPAS299 cells expressing […] assessed as accumulation of cells at S phase at 1 uM incubated for 48 hrs by propidium iodide staining based flow cytometry (reference value: 28.83%); format: functional

Proto-oncogene tyrosine-protein kinase ROS, sequence (P08922 whole entry, the tested form may be a part): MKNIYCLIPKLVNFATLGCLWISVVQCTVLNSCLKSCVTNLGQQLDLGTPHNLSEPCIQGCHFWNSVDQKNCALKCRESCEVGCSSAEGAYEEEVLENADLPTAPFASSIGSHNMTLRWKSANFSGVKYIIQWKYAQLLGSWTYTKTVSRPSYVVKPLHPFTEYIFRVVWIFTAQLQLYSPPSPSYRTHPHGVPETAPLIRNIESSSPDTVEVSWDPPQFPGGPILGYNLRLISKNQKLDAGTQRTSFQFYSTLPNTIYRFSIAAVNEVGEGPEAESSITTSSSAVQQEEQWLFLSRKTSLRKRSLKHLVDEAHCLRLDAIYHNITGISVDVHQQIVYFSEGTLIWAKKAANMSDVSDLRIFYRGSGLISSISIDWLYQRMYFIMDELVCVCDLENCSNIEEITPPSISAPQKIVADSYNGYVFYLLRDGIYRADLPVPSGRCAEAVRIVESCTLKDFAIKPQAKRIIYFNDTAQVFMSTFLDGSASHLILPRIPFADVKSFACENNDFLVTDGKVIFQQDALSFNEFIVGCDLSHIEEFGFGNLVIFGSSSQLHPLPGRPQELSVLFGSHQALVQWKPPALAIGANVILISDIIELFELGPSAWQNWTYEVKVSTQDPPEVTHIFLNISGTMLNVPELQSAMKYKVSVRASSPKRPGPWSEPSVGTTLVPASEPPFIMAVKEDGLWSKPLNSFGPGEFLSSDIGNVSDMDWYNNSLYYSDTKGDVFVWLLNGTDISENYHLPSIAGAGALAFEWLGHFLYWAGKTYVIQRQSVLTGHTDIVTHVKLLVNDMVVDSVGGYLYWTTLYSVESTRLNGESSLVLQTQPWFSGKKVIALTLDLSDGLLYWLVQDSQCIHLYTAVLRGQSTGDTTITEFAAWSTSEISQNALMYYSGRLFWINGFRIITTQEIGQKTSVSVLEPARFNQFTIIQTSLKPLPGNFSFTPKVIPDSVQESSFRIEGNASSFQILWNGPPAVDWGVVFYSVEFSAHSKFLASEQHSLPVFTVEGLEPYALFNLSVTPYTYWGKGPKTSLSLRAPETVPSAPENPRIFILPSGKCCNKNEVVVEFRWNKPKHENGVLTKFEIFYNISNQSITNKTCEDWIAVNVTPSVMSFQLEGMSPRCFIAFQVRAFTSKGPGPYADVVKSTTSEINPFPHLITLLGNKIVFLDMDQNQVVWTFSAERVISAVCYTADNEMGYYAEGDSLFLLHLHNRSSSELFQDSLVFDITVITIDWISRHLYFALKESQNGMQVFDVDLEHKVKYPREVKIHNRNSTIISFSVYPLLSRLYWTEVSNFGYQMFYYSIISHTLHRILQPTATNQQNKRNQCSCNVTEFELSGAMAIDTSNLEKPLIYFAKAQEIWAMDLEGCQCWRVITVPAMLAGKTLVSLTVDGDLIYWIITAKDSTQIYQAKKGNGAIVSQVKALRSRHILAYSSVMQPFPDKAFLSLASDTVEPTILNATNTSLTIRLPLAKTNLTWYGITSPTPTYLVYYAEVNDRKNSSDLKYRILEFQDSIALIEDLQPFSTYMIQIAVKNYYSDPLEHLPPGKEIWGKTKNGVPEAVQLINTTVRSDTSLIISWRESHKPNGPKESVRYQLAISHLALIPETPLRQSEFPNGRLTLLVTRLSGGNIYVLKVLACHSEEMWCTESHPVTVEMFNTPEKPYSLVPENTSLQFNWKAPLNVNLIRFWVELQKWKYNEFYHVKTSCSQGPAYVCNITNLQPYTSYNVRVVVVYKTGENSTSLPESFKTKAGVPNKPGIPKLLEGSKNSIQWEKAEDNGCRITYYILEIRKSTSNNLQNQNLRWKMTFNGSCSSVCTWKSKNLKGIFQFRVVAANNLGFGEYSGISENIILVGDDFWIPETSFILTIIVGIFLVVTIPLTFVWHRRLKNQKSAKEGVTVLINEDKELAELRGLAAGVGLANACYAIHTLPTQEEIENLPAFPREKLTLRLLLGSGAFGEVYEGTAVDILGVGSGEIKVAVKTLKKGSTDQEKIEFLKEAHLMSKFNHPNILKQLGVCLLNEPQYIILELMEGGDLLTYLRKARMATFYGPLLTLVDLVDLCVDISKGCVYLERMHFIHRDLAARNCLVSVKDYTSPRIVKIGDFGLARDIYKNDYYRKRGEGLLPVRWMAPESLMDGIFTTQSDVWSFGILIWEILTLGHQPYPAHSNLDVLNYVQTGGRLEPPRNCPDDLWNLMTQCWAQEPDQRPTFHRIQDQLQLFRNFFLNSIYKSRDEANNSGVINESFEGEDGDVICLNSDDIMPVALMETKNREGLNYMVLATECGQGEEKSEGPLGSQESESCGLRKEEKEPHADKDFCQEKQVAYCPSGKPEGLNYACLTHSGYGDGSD

Work on `C[C@@H](Sc1cc(-c2ccn(Cc3ccccc3)c(=O)c2)cnc1N)c1c(Cl)ccc(F)c1Cl` yielded a pIC50 (KARPAS-299 [1]) of 6.10.

For `C[C@@H](Oc1cc(-c2cc[nH]c(=O)c2)cnc1N)c1c(Cl)ccc(F)c1Cl`, the pIC50 (KARPAS-299 [1]) was 7.30, the pIC50 (NCI-H2228) was 6.19 and the pIC50 (cells) was 6.12. The pIC50 (SH-SY5Y) was 5.68.

`CC(Oc1cc(-c2cc[nH]c(=O)c2)cnc1N)c1ccccc1` (stereo not given) gave a pIC50 (KARPAS-299 [1]) of 5.36.

Work on `CC(Oc1cc(-c2ccn(C)c(=O)c2)cnc1N)c1ccccc1` (stereo not given) yielded a pIC50 (KARPAS-299 [1]) of 5.54.

With `C[C@@H](Sc1cc(-c2cc[nH]c(=O)c2)cnc1N)c1c(Cl)ccc(F)c1Cl` the pIC50 (KARPAS-299 [1]) was 6.14.

For `CCn1ccc(-c2cnc(N)c(O[C@H](C)c3c(Cl)ccc(F)c3Cl)c2)cc1=O`, the pIC50 (KARPAS-299 [1]) was 7.22, the pIC50 (NCI-H2228) was 5.92 and the pIC50 (cells) was 5.84. The pIC50 (SH-SY5Y) was 5.60.

`CC(Oc1cc(-c2ccn(C)c(=O)c2)cnc1N)c1ccncc1` (stereo not given) gave a pIC50 (KARPAS-299 [1]) of less than 4.70.

Work on `C[C@@H](Sc1cc(-c2ccn(CCN(C)C)c(=O)c2)cnc1N)c1c(Cl)ccc(F)c1Cl` yielded a pIC50 (KARPAS-299 [1]) of 6.55.

`CCCn1ccc(-c2cnc(N)c(O[C@H](C)c3c(Cl)ccc(F)c3Cl)c2)cc1=O` showed a pIC50 (KARPAS-299 [1]) of 6.96, a pIC50 (NCI-H2228) of 5.91 and a pIC50 (cells) of 5.84. It also gave a pIC50 (SH-SY5Y) of 5.67.

`CC(NC(=O)c1cc(-c2ccn(C)c(=O)c2)cnc1N)c1c(Cl)ccc(F)c1Cl` (stereo not given) showed a pIC50 (KARPAS-299 [1]) of less than 4.70.

`Cc1ccc(C(C)Oc2cc(-c3ccn(C)c(=O)c3)cnc2N)cc1` (stereo not given) showed a pIC50 (KARPAS-299 [1]) of 5.11.

With `CC(NC(=O)c1cc(-c2cc[nH]c(=O)c2)cnc1N)c1c(Cl)ccc(F)c1Cl` (stereo not given) the pIC50 (KARPAS-299 [1]) was less than 4.70.

Work on `C[C@@H](Sc1cc(-c2ccn(C)c(=O)c2)cnc1N)c1c(Cl)ccc(F)c1Cl` yielded a pIC50 (KARPAS-299 [1]) of 6.40.

`C[C@@H](Oc1cc(-c2ccn(Cc3ccccc3)c(=O)c2)cnc1N)c1c(Cl)ccc(F)c1Cl` gave a pIC50 (KARPAS-299 [1]) of 6.89, a pIC50 (NCI-H2228) of 5.89 and a pIC50 (cells) of 5.99. It also gave a pIC50 (SH-SY5Y) of 5.87.

Compound `Cc1ccc(C(C)Oc2cc(-c3cc[nH]c(=O)c3)cnc2N)cc1` (stereo not given) has a pIC50 (KARPAS-299 [1]) of 4.99.

In the case of `CC(Oc1cc(-c2ccn(C)c(=O)c2)cnc1N)c1ccc(Cl)cc1` (stereo not given), the pIC50 (KARPAS-299 [1]) was 4.68.

For `C[C@@H](Oc1cc(-c2ccn(CCN(C)C)c(=O)c2)cnc1N)c1c(Cl)ccc(F)c1Cl`, the pIC50 (KARPAS-299 [1]) was 7.40, the Activity (KARPAS-299 [2]) was 81.46% and the pIC50 (NCI-H2228) was 6.36. The pIC50 (cells) was 6.15, the pIC50 (SH-SY5Y) was 5.78 and the pIC50 [3] was 8.64. For the same compound, the Activity (KARPAS-299 [4]) was 5.43% and the Activity (KARPAS-299 [5]) was 8%.

`CC(Oc1cc(-c2ccn(C)c(=O)c2)cnc1N)c1ccccn1` (stereo not given) gave a pIC50 (KARPAS-299 [1]) of 4.92.

Compound `CCOC(=O)Cn1ccc(-c2cnc(N)c(O[C@H](C)c3c(Cl)ccc(F)c3Cl)c2)cc1=O` has a pIC50 (KARPAS-299 [1]) of 6.68, a pIC50 (NCI-H2228) of 5.48 and a pIC50 (cells) of 5.91. It also gave a pIC50 (SH-SY5Y) of 5.73.

`CC(Oc1cc(-c2cc[nH]c(=O)c2)cnc1N)c1ccc(Cl)cc1` (stereo not given) showed a pIC50 (KARPAS-299 [1]) of 4.75.

Compound `C[C@@H](Oc1cc(-c2ccn(C)c(=O)c2)cnc1N)c1c(Cl)ccc(F)c1Cl` has a pIC50 (KARPAS-299 [1]) of 7.40, a pIC50 (NCI-H2228) of 6.16 and a pIC50 (cells) of 6.08. For the same compound, the pIC50 (SH-SY5Y) was 5.73.

`CC(Oc1cc(-c2ccn(C)c(=O)c2)cnc1N)c1cccnc1` (stereo not given) showed a pIC50 (KARPAS-299 [1]) of 4.95.

Compound `CC(Oc1cc(-c2ccn(Cc3ccccc3)c(=O)c2)cnc1N)c1c(Cl)ccc(F)c1Cl` (racemic) has a pIC50 (KARPAS-299 [1]) of 6.49.

In the case of `CC(Oc1cc(-c2ccn(C)c(=O)c2)cnc1N)c1c(Cl)ccc(F)c1Cl` (racemic), the pIC50 (KARPAS-299 [1]) was 6.70.

`CC(Oc1cc(-c2cc[nH]c(=O)c2)cnc1N)c1c(Cl)ccc(F)c1Cl` (racemic) showed a pIC50 (KARPAS-299 [1]) of 6.92.
